The source made the active and inactive calls. The rule behind the calls is not given here.
Assays:
[1] = tested on: Rattus norvegicus; assay: Antialzheimer activity in CD rat assessed as reduction in amyloid beta (1 to 40) CSF level at 30 mg/kg, po measured after 3 hrs; type: functional, organism-based; design: dose 30 mg/kg
[2] = organism: Canis lupus familiaris; assay: Inhibition of dog gamma-secretase assessed as reduction in reduction in Hes-1 expression up to 20 uM
[3] = organism: Mus musculus; assay: Inhibition of mouse gamma-secretase assessed as reduction in reduction in Hes-1 expression up to 20 uM
[4] = tested on: P-glycoprotein; assay: Drug transport assessed as P-glycoprotein-mediated basolateral to apical permeability; type: ADME; settings: not told; read-out: permeability
[5] = Drug uptake in CD rat brain at 30 mg/kg, po measured after 3 hrs; type: ADME, organism-based; design: dose 30 mg/kg, route oral; settings: read-out: Drug uptake
[6] = Inhibition of gamma secretase-mediated amyloid beta (1 to 42) production expressed in HEK293 cells overexpressing APP Swedish mutant after 5 hrs by immunoassay; type: cell-based
[7] = Drug uptake in CD rat plasma at 30 mg/kg, po measured after 3 hrs; type: ADME, organism-based; design: dose 30 mg/kg, route oral
[8] = tested on: Rattus norvegicus; assay: Antialzheimer activity in CD rat assessed as reduction in amyloid beta total CSF level at 30 mg/kg, po measured after 3 hrs; type: functional, organism-based; design: dose 30 mg/kg
[9] = tested on: P-glycoprotein; assay: Drug transport assessed as P-glycoprotein-mediated efflux ratio of compound transport from basolateral to apical side over apical to basolateral side; type: ADME; settings: not told
[10] = tested on: HEK293; assay: Inhibition of gamma-secretase expressed in HEK293 cells assessed as reduction in Notch cleavage up to 20 uM; type: cell-based
[11] = tested on: P-glycoprotein; assay: Drug transport assessed as P-glycoprotein-mediated apical to basolateral permeability; type: ADME; settings: not told; read-out: permeability
[12] = Selectivity ratio of IC50 for gamma secretase-mediated amyloid beta total production to IC50 for gamma secretase-mediated amyloid beta (1 to 42) production
[13] = tested on: Rattus norvegicus; assay: Antialzheimer activity in CD rat assessed as reduction in amyloid beta (1 to 42) CSF level at 30 mg/kg, po measured after 3 hrs; type: functional

SMILES	inhibition [2]	inhibition [3]	Papp B→A [4]	concentration at 3 h [5]	IC50 [6]	concentration at 3 h [7]	efflux ratio [9]	Papp A→B [11]	Ratio IC50 [12]	inhibition [1]	inhibition [8]	inhibition [10]	Activity [13]
COc1ccc(COCc2cc3c(-c4ccc(-n5cnc(C)c5)c(OC)c4)nnc-3n([C@@H](C)c3ccc(F)cc3)c2)cc1	inactive	inactive	–	–	182 nM	–	–	–	110	inactive	inactive	inactive	–
COc1cc(-c2nnc3n(C(CCS(C)(=O)=O)c4ccc(F)cc4)cc(Cl)cc2-3)ccc1-n1cnc(C)c1 (stereo unspecified)	inactive	inactive	–	–	316 nM	–	–	–	63	inactive	inactive	inactive	–
CC[C@@H](c1ccc(F)cc1)n1cccc2c(-c3ccc(-n4cnc(C)c4)c(OC)c3)nnc1-2	inactive	inactive	–	–	140 nM	–	–	–	42	inactive	inactive	inactive	–
COc1cc(-c2nnc3n([C@@H](C)c4cc(F)cc(F)c4)cccc2-3)ccc1-n1cnc(C)c1	inactive	inactive	32.4 ×10⁻⁶ cm/s	140 nM	117 nM	1960 nM	3.85	8.5 ×10⁻⁶ cm/s	94	inactive	inactive	inactive	inactive
COc1ccc(Cn2cccc3c(-c4ccc(-n5cnc(C)c5)c(OC)c4)nnc2-3)cc1	inactive	inactive	–	–	168 nM	–	–	–	119	inactive	inactive	inactive	–
COc1cc(-c2nnc3n(C(C)c4ccc(F)cc4)cccc2-3)ccc1-n1cnc(C)c1 (racemic)	inactive	inactive	–	–	231 nM	–	–	–	87	inactive	inactive	inactive	–
COc1cc(-c2nnc3n([C@@H](C)c4ccc(F)cc4)cc(C(F)F)cc2-3)ccc1-n1cnc(C)c1	inactive	inactive	–	–	123 nM	–	–	–	52	inactive	inactive	inactive	inactive
COc1cc(-c2nnc3n([C@H](C)c4ccc(F)cc4)cccc2-3)ccc1-n1cnc(C)c1	inactive	inactive	–	–	332 nM	–	–	–	60	inactive	inactive	inactive	–
COc1cc(-c2nnc3n([C@@H](C)c4ccc(F)cc4)cc(CF)cc2-3)ccc1-n1cnc(C)c1	inactive	inactive	–	–	634 nM	–	–	–	32	inactive	inactive	inactive	–
C=C(c1ccc(F)cc1)n1cc(Cl)cc2c(-c3ccc(-n4cnc(C)c4)c(OC)c3)nnc1-2	inactive	inactive	–	–	481 nM	–	–	–	42	inactive	inactive	inactive	–
COc1cc(-c2nnc3n([C@@H](C)c4ccc(F)cc4)cc(C(C)(F)F)cc2-3)ccc1-n1cnc(C)c1	inactive	inactive	–	–	143 nM	30 nM	–	–	66	inactive	inactive	inactive	inactive
COc1cc(-c2nnc3n([C@@H](CO)c4ccc(F)cc4)cc(Cl)cc2-3)ccc1-n1cnc(C)c1	inactive	inactive	–	100 nM	168 nM	2150 nM	–	–	119	inactive	inactive	inactive	inactive
COc1cc(-c2nnc3n([C@@H](C)c4ccc(F)cc4)cc(C#N)cc2-3)ccc1-n1cnc(C)c1	inactive	inactive	–	–	172 nM	–	–	–	60	inactive	inactive	inactive	–

The next molecules have a lower IC50 [6] than those just listed; values first:

inhibition [2]	inhibition [3]	Papp B→A [4]	concentration at 3 h [5]	IC50 [6]	concentration at 3 h [7]	efflux ratio [9]	Papp A→B [11]	Ratio IC50 [12]	SMILES	inhibition [1]	inhibition [8]	inhibition [10]	Activity [13]
inactive	inactive	31.4 ×10⁻⁶ cm/s	170 nM	97 nM	2880 nM	33.8	0.9 ×10⁻⁶ cm/s	205	COc1cc(-c2nnc3n([C@@H](C)c4ccc(F)cc4)cccc2-3)ccc1-n1cnc(C)c1	inactive	inactive	inactive	inactive
inactive	inactive	–	920 nM	70 nM	2740 nM	–	–	288	COc1cc(-c2nnc3n([C@@H](C)c4ccc(F)cc4)cc(Cl)cc2-3)ccc1-n1cnc(C)c1	inactive	inactive	inactive	32%
inactive	inactive	–	740 nM	71 nM	2520 nM	–	–	151	COc1cc(-c2nnc3n([C@@H](C)c4cc(F)ccc4F)cc(Cl)cc2-3)ccc1-n1cnc(C)c1	inactive	inactive	inactive	24%
inactive	inactive	–	1220 nM	107 nM	5020 nM	–	–	186	COc1cc(-c2nnc3n([C@@H](C)c4cc(F)c(F)c(F)c4)cc(Cl)cc2-3)ccc1-n1cnc(C)c1	inactive	inactive	inactive	45%
inactive	inactive	–	1610 nM	43 nM	7230 nM	–	–	463	CC[C@@H](c1cc(F)c(F)c(F)c1)n1cc(Cl)cc2c(-c3ccc(-n4cnc(C)c4)c(OC)c3)nnc1-2	inactive	inactive	inactive	30%
inactive	inactive	41.2 ×10⁻⁶ cm/s	–	85 nM	–	8.5	4.8 ×10⁻⁶ cm/s	161	COc1cc(-c2nnc3n([C@@H](C)c4ccc(F)cc4)cc(C)cc2-3)ccc1-n1cnc(C)c1	inactive	inactive	inactive	inactive
inactive	inactive	–	–	38 nM	–	–	–	6	COc1cc(-c2nnc3n([C@@H](C)c4cc(F)cc(F)c4)cc(Cl)cc2-3)ccc1-n1cnc(C)c1	inactive	inactive	inactive	–
inactive	inactive	–	880 nM	66 nM	6510 nM	–	–	301	COc1cc(-c2nnc3n([C@@H](C)c4ccc(F)c(F)c4)cc(Cl)cc2-3)ccc1-n1cnc(C)c1	inactive	inactive	inactive	27%
inactive	inactive	–	–	81 nM	–	–	–	248	COc1cc(-c2nnc3n([C@@H](C)c4ccc(F)cc4)cc(CO)cc2-3)ccc1-n1cnc(C)c1	inactive	inactive	inactive	–

From ChEMBL document CHEMBL1949654, “Discovery of a Potent Pyrazolopyridine Series of γ-Secretase Modulators” (ACS Med Chem Lett, 2011)
